Laboratory results published in patent US20250223268A1, “4-Methylsulfonylbenzamide Compound, Preparation Method, Herbicidal Composition And Use” (Jiangsu Flag Chemical Industry Co., Ltd., priority 2022, published 2025).

Experiments:
Assay in all cases: Greenhouse herbicidal activity assay, post-emergence
Format in all cases: in vivo
Details in all cases: Post-emergence test, rate 150 g a.i./hm^2, grade by fresh weight inhibition rate
Cyperus iria = system: Cyperus iria
Summary of the method: (§1)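 Scores reflect fresh weight inhibition assessed 14-21 days after treatment, with grade A meaning ≥80% to 100% and grade E meaning <20%. Plants, raised in nutrient-soil pots inside a growth chamber, were sprayed on the foliage at the 3-6 leaf stage.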

Eclipta prostrata = system: Eclipta prostrata
Summary of the method: as §1

Echinochloa crusgalli = system: Echinochloa crusgalli
Summary of the method: as §1

Digitaria sanguinalis = system: Digitaria sanguinalis
Summary of the method: as §1

Leptochloa chinensis = system: Leptochloa chinensis
Summary of the method: as §1

SMILES	Control efficacy grade, Cyperus iria (Cyperus iria)	Control efficacy grade, Eclipta prostrata (Eclipta prostrata)	Control efficacy grade, Echinochloa crusgalli (Echinochloa crusgalli)	Control efficacy grade, Digitaria sanguinalis (Digitaria sanguinalis)	Control efficacy grade, Leptochloa chinensis (Leptochloa chinensis)	pest or weed control at 150 g/ha (Cyperus iria; Cyperus iria, read-out: Control efficacy grade, Cyperus iria)	pest or weed control at 150 g/ha (Eclipta prostrata; Eclipta prostrata, read-out: Control efficacy grade, Eclipta prostrata)	pest or weed control at 150 g/ha (Echinochloa crusgalli; Echinochloa crus-galli, read-out: Control efficacy grade, Echinochloa crusgalli)	pest or weed control at 150 g/ha (Digitaria sanguinalis; Digitaria sanguinalis, read-out: Control efficacy grade, Digitaria sanguinalis)	pest or weed control at 150 g/ha (Leptochloa chinensis; Dinebra chinensis, read-out: Control efficacy grade, Leptochloa chinensis)
CCc1nnc(NC(=O)c2ccc(S(C)(=O)=O)c([S+]([O-])C(C)CC)c2Cl)o1 (mixture of isomers) [Compound 3-401]	A (Fresh weight inhibition rate≥80% to 100%)	A (Fresh weight inhibition rate≥80% to 100%)	A (Fresh weight inhibition rate≥80% to 100%)	A (Fresh weight inhibition rate≥80% to 100%)	A (Fresh weight inhibition rate≥80% to 100%)	–	–	–	–	–
CCCSc1c(S(C)(=O)=O)ccc(C(=O)Nc2nnnn2C)c1Cl [Compound 1-1, 2-chloro-N-(1-methyl-1H-tetrazol-5-yl)-4-(methylsulfonyl)-3-(propylthio)benzamide]	–	–	–	–	–	80 to 100%	80 to 100%	80 to 100%	80 to 100%	80 to 100%
CCc1nnc(NC(=O)c2ccc(S(C)(=O)=O)c([S+]([O-])C3CCCC3)c2Cl)o1 (racemic) [Compound 3-430]	A (Fresh weight inhibition rate≥80% to 100%)	A (Fresh weight inhibition rate≥80% to 100%)	A (Fresh weight inhibition rate≥80% to 100%)	A (Fresh weight inhibition rate≥80% to 100%)	A (Fresh weight inhibition rate≥80% to 100%)	–	–	–	–	–
Cn1nnnc1NC(=O)c1ccc(S(C)(=O)=O)c(SCC2CC2)c1Cl [Compound 1-27]	A (Fresh weight inhibition rate≥80% to 100%)	A (Fresh weight inhibition rate≥80% to 100%)	A (Fresh weight inhibition rate≥80% to 100%)	A (Fresh weight inhibition rate≥80% to 100%)	A (Fresh weight inhibition rate≥80% to 100%)	–	–	–	–	–
C=CC[S+]([O-])c1c(S(C)(=O)=O)ccc(C(=O)Nc2nnc(CC)o2)c1Cl (racemic) [Compound 3-455]	A (Fresh weight inhibition rate≥80% to 100%)	A (Fresh weight inhibition rate≥80% to 100%)	A (Fresh weight inhibition rate≥80% to 100%)	A (Fresh weight inhibition rate≥80% to 100%)	A (Fresh weight inhibition rate≥80% to 100%)	–	–	–	–	–
Cc1nnc(NC(=O)c2ccc(S(C)(=O)=O)c([S+]([O-])C3CCCC3)c2Cl)o1 (racemic) [Compound 3-88]	A (Fresh weight inhibition rate≥80% to 100%)	A (Fresh weight inhibition rate≥80% to 100%)	A (Fresh weight inhibition rate≥80% to 100%)	A (Fresh weight inhibition rate≥80% to 100%)	A (Fresh weight inhibition rate≥80% to 100%)	–	–	–	–	–
CC(C)[S+]([O-])c1c(S(C)(=O)=O)ccc(C(=O)Nc2nnco2)c1Cl (racemic) [Compound 3-273]	A (Fresh weight inhibition rate≥80% to 100%)	A (Fresh weight inhibition rate≥80% to 100%)	A (Fresh weight inhibition rate≥80% to 100%)	A (Fresh weight inhibition rate≥80% to 100%)	A (Fresh weight inhibition rate≥80% to 100%)	–	–	–	–	–
Cc1nnc(NC(=O)c2ccc(S(C)(=O)=O)c([S+]([O-])CC(C)C)c2Cl)o1 (racemic) [Compound 3-28]	A (Fresh weight inhibition rate≥80% to 100%)	A (Fresh weight inhibition rate≥80% to 100%)	A (Fresh weight inhibition rate≥80% to 100%)	A (Fresh weight inhibition rate≥80% to 100%)	A (Fresh weight inhibition rate≥80% to 100%)	–	–	–	–	–
C=CC[S+]([O-])c1c(S(C)(=O)=O)ccc(C(=O)Nc2nnnn2C)c1Cl (racemic) [Compound 1-68]	A (Fresh weight inhibition rate≥80% to 100%)	A (Fresh weight inhibition rate≥80% to 100%)	A (Fresh weight inhibition rate≥80% to 100%)	A (Fresh weight inhibition rate≥80% to 100%)	A (Fresh weight inhibition rate≥80% to 100%)	–	–	–	–	–
CS(=O)(=O)c1ccc(C(=O)Nc2nnco2)c(Cl)c1[S+]([O-])C1CCCC1 (racemic) [Compound 3-314]	A (Fresh weight inhibition rate≥80% to 100%)	A (Fresh weight inhibition rate≥80% to 100%)	A (Fresh weight inhibition rate≥80% to 100%)	A (Fresh weight inhibition rate≥80% to 100%)	A (Fresh weight inhibition rate≥80% to 100%)	–	–	–	–	–
CCC(C)S(=O)(=O)c1c(S(C)(=O)=O)ccc(C(=O)Nc2nnc(C)o2)c1Cl (single isomer, unassigned) [Compound 3-25]	A (Fresh weight inhibition rate≥80% to 100%)	A (Fresh weight inhibition rate≥80% to 100%)	A (Fresh weight inhibition rate≥80% to 100%)	A (Fresh weight inhibition rate≥80% to 100%)	A (Fresh weight inhibition rate≥80% to 100%)	–	–	–	–	–
CCC[S+]([O-])c1c(S(C)(=O)=O)ccc(C(=O)Nc2ncnn2C)c1Cl (racemic) [Compound 2-2]	A (Fresh weight inhibition rate≥80% to 100%)	A (Fresh weight inhibition rate≥80% to 100%)	A (Fresh weight inhibition rate≥80% to 100%)	A (Fresh weight inhibition rate≥80% to 100%)	A (Fresh weight inhibition rate≥80% to 100%)	–	–	–	–	–
CCc1nnc(NC(=O)c2ccc(S(C)(=O)=O)c([S+]([O-])CC(F)F)c2Cl)o1 (racemic) [Compound 3-445]	A (Fresh weight inhibition rate≥80% to 100%)	A (Fresh weight inhibition rate≥80% to 100%)	A (Fresh weight inhibition rate≥80% to 100%)	A (Fresh weight inhibition rate≥80% to 100%)	A (Fresh weight inhibition rate≥80% to 100%)	–	–	–	–	–
Cn1ncnc1NC(=O)c1ccc(S(C)(=O)=O)c([S+]([O-])CC2CC2)c1Cl (single isomer, unassigned) [Compound 2-30]	A (Fresh weight inhibition rate≥80% to 100%)	A (Fresh weight inhibition rate≥80% to 100%)	A (Fresh weight inhibition rate≥80% to 100%)	A (Fresh weight inhibition rate≥80% to 100%)	A (Fresh weight inhibition rate≥80% to 100%)	–	–	–	–	–
CCc1nnc(NC(=O)c2ccc(S(C)(=O)=O)c(SCC3CC3)c2Cl)o1 [Compound 3-414]	A (Fresh weight inhibition rate≥80% to 100%)	A (Fresh weight inhibition rate≥80% to 100%)	A (Fresh weight inhibition rate≥80% to 100%)	A (Fresh weight inhibition rate≥80% to 100%)	A (Fresh weight inhibition rate≥80% to 100%)	–	–	–	–	–
CC(C)c1nnc(NC(=O)c2ccc(S(C)(=O)=O)c([S+]([O-])C3CCC3)c2Cl)o1 (racemic) [Compound 3-541]	A (Fresh weight inhibition rate≥80% to 100%)	A (Fresh weight inhibition rate≥80% to 100%)	C (Fresh weight inhibition rate≥40% to <60%)	B (Fresh weight inhibition rate≥260% to <80%)	A (Fresh weight inhibition rate≥80% to 100%)	–	–	–	–	–
CCC(C)S(=O)(=O)c1c(S(C)(=O)=O)ccc(C(=O)Nc2ncnn2C)c1Cl (racemic) [Compound 2-24]	A (Fresh weight inhibition rate≥80% to 100%)	A (Fresh weight inhibition rate≥80% to 100%)	A (Fresh weight inhibition rate≥80% to 100%)	A (Fresh weight inhibition rate≥80% to 100%)	A (Fresh weight inhibition rate≥80% to 100%)	–	–	–	–	–
CC(C)Sc1c(S(C)(=O)=O)ccc(C(=O)Nc2nnnn2C)c1Cl [Compound 1-6]	A (Fresh weight inhibition rate≥80% to 100%)	A (Fresh weight inhibition rate≥80% to 100%)	A (Fresh weight inhibition rate≥80% to 100%)	A (Fresh weight inhibition rate≥80% to 100%)	A (Fresh weight inhibition rate≥80% to 100%)	–	–	–	–	–
